According to PubChem BioAssay AID1259407 (Chemical Carcinogenesis Research Information System (CCRIS), 2018):
Calls of active or inactive are those of the source. The rule behind the calls is not given here.

Tested on: CCRIS mutagenicity, Ames/micronucleus/aberration tests
Experiment: CCRIS mutagenicity studies
[1] = Test System: AMES SALMONELLA TYPHIMURIUM, Strain/Indicator: TA98, Metabolic Activation: NONE, Method: STANDARD PLATE
[2] = Test System: AMES SALMONELLA TYPHIMURIUM, Strain/Indicator: TA100, Metabolic Activation: NONE, Method: STANDARD PLATE
[3] = Test System: AMES SALMONELLA TYPHIMURIUM, Strain/Indicator: TA1537, Metabolic Activation: NONE, Method: STANDARD PLATE
[4] = Test System: AMES SALMONELLA TYPHIMURIUM, Strain/Indicator: TA1535, Metabolic Activation: NONE, Method: STANDARD PLATE
[5] = Test System: AMES SALMONELLA TYPHIMURIUM, Strain/Indicator: TA100, Metabolic Activation: RAT, LIVER, S-9, AROCLOR 1254, Method: STANDARD PLATE
[6] = Test System: AMES SALMONELLA TYPHIMURIUM, Strain/Indicator: TA98, Metabolic Activation: NONE, Method: PREINCUBATION
[7] = Test System: AMES SALMONELLA TYPHIMURIUM, Strain/Indicator: TA100, Metabolic Activation: NONE, Method: PREINCUBATION

In the case of `CN1C(=O)[C@]23CC4=CC=C[C@H](O)[C@H]4N2C(=O)[C@@]1(CO)SS3`, the mutagenic call [1] is reported as “inactive; negative”, the mutagenic call (Test System: AMES SALMONELLA TYPHIMURIUM, Strain/Indicator: TA98, Metabolic Activation: RAT LIVER S-9 MIX, Method: STANDARD PLATE) is reported as “inactive; negative” and the mutagenic call (Test System: AMES SALMONELLA TYPHIMURIUM, Strain/Indicator: TA98, Metabolic Activation: S-9, Method: STANDARD PLATE) is reported as “inactive; negative”. The mutagenic call [2] was “inactive; negative”, the mutagenic call (Test System: AMES SALMONELLA TYPHIMURIUM, Strain/Indicator: TA100, Metabolic Activation: RAT LIVER S-9 MIX, Method: STANDARD PLATE) was “inactive; negative” and the mutagenic call (Test System: AMES SALMONELLA TYPHIMURIUM, Strain/Indicator: TA100, Metabolic Activation: S-9, Method: STANDARD PLATE) was “inactive; negative”. For the same compound, the mutagenic call (Test System: AMES SALMONELLA TYPHIMURIUM, Strain/Indicator: TA102, Metabolic Activation: NONE, Method: STANDARD PLATE) was “inactive; negative”, the mutagenic call (Test System: AMES SALMONELLA TYPHIMURIUM, Strain/Indicator: TA102, Metabolic Activation: RAT LIVER S-9 MIX, Method: STANDARD PLATE) was “inactive; negative” and the mutagenic call [3] was “inactive; negative”. The mutagenic call (Test System: AMES SALMONELLA TYPHIMURIUM, Strain/Indicator: TA1537, Metabolic Activation: S-9, Method: STANDARD PLATE) was “inactive; negative”.
`ClCCNCCCNc1c2ccccc2nc2ccccc12` was tested, and the mutagenic call [1] was “active; positive”, the mutagenic call [2] was “active; positive” and the mutagenic call [4] was “active; positive”. The mutagenic call (Test System: AMES SALMONELLA TYPHIMURIUM, Strain/Indicator: TA1536, Metabolic Activation: NONE, Method: STANDARD PLATE) was “active; positive”, the mutagenic call [3] was “active; positive” and the mutagenic call (Test System: AMES SALMONELLA TYPHIMURIUM, Strain/Indicator: TA1538, Metabolic Activation: NONE, Method: STANDARD PLATE) was “active; positive”.
`CCC(=O)Nc1ccc(Cl)c(Cl)c1` was tested, and the mutagenic call (Test System: AMES SALMONELLA TYPHIMURIUM, Strain/Indicator: TA97, Metabolic Activation: NONE, Method: STANDARD PLATE) was “inactive; negative”, the mutagenic call (Test System: AMES SALMONELLA TYPHIMURIUM, Strain/Indicator: TA97, Metabolic Activation: RAT, LIVER, S-9, AROCLOR 1254, Method: STANDARD PLATE) was “inactive; negative” and the mutagenic call [1] was “inactive; negative”. The mutagenic call (Test System: AMES SALMONELLA TYPHIMURIUM, Strain/Indicator: TA98, Metabolic Activation: RAT, LIVER, S-9, AROCLOR 1254, Method: STANDARD PLATE) was “inactive; negative”, the mutagenic call [2] was “inactive; negative” and the mutagenic call [5] was “inactive; negative”. For the same compound, the mutagenic call (Test System: AMES SALMONELLA TYPHIMURIUM, Strain/Indicator: TA104, Metabolic Activation: NONE, Method: STANDARD PLATE) was “inactive; negative”, the mutagenic call (Test System: AMES SALMONELLA TYPHIMURIUM, Strain/Indicator: TA104, Metabolic Activation: RAT, LIVER, S-9, AROCLOR 1254, Method: STANDARD PLATE) was “inactive; negative” and the mutagenic call (Test System: CHINESE HAMSTER OVARY, Strain/Indicator: CHO-K1-BH4 (HGPRT), Metabolic Activation: NONE) was “inactive; negative”. For the same compound, the mutagenic call (Test System: CHINESE HAMSTER OVARY, Strain/Indicator: CHO-K1-BH4 (HGPRT), Metabolic Activation: RAT, LIVER, S-9, AROCLOR 1254) was “inactive; negative”.
In the case of `COc1ccc2c(c1)[C@H]1CCCC[C@@H]1[C@@H]1O[C@H]21`, the mutagenic call [1] is reported as “inactive; negative” and the mutagenic call [2] is reported as “inactive; negative”.
With `Cc1oc(=O)oc1COC(=O)[C@@H]1N2C(=O)[C@@H](NC(=O)[C@H](N)c3ccccc3)[C@H]2SC1(C)C` the mutagenic call [6] was “inactive; negative”, the mutagenic call (Test System: AMES SALMONELLA TYPHIMURIUM, Strain/Indicator: TA98, Metabolic Activation: RAT, LIVER, S-9, PHENOBARBITAL AND 5,6-BENZOFLAVONE, Method: PREINCUBATION) was “inactive; negative” and the mutagenic call [7] was “inactive; negative”. The mutagenic call (Test System: AMES SALMONELLA TYPHIMURIUM, Strain/Indicator: TA100, Metabolic Activation: RAT, LIVER, S-9, PHENOBARBITAL AND 5,6-BENZOFLAVONE, Method: PREINCUBATION) was “inactive; negative”, the mutagenic call (Test System: AMES SALMONELLA TYPHIMURIUM, Strain/Indicator: TA1535, Metabolic Activation: NONE, Method: PREINCUBATION) was “inactive; negative” and the mutagenic call (Test System: AMES SALMONELLA TYPHIMURIUM, Strain/Indicator: TA1535, Metabolic Activation: RAT, LIVER, S-9, PHENOBARBITAL AND 5,6-BENZOFLAVONE, Method: PREINCUBATION) was “inactive; negative”. The mutagenic call (Test System: AMES SALMONELLA TYPHIMURIUM, Strain/Indicator: TA1537, Metabolic Activation: NONE, Method: PREINCUBATION) was “inactive; negative”, the mutagenic call (Test System: AMES SALMONELLA TYPHIMURIUM, Strain/Indicator: TA1537, Metabolic Activation: RAT, LIVER, S-9, PHENOBARBITAL AND 5,6-BENZOFLAVONE, Method: PREINCUBATION) was “inactive; negative” and the mutagenic call (Test System: AMES SALMONELLA TYPHIMURIUM, Strain/Indicator: TA1538, Metabolic Activation: NONE, Method: PREINCUBATION) was “inactive; negative”. For the same compound, the mutagenic call (Test System: AMES SALMONELLA TYPHIMURIUM, Strain/Indicator: TA1538, Metabolic Activation: RAT, LIVER, S-9, PHENOBARBITAL AND 5,6-BENZOFLAVONE, Method: PREINCUBATION) was “inactive; negative”, the mutagenic call (Test System: E. COLI, Strain/Indicator: WP2 UVRA, Metabolic Activation: NONE, Method: PREINCUBATION) was “inactive; negative” and the mutagenic call (Test System: E. COLI, Strain/Indicator: WP2 UVRA, Metabolic Activation: RAT, LIVER, S-9, AROCLOR 1254, Method: PREINCUBATION) was “inactive; negative”.
For `COc1ccc(-c2nc(-c3ccc(C)cc3C)[nH]c2-c2ccc(OC)cc2)cc1`, the mutagenic call [1] was “active; positive”, the mutagenic call (Test System: AMES SALMONELLA TYPHIMURIUM, Strain/Indicator: TA98, Metabolic Activation: RAT LIVER S-9, 3-METHYLCHOLANTHRENE, SODIUM PHENOBARBITAL, Method: STANDARD PLATE) was “inactive; negative” and the mutagenic call [2] was “active; positive”. For the same compound, the mutagenic call (Test System: AMES SALMONELLA TYPHIMURIUM, Strain/Indicator: TA100, Metabolic Activation: RAT LIVER S-9, 3-METHYLCHOLANTHRENE, SODIUM PHENOBARBITAL, Method: STANDARD PLATE) was “inactive; negative”.
For `COc1cc2c(c3oc(=O)c4c(c13)CC[C@@H]4O)[C@@H]1C=CO[C@@H]1O2`, the mutagenic call (Test System: AMES SALMONELLA TYPHIMURIUM, Strain/Indicator: TA98, Metabolic Activation: RAT, LIVER, S-9, PHENOBARBITAL, Method: STANDARD PLATE) was “active; positive”, the mutagenic call (Test System: AMES SALMONELLA TYPHIMURIUM, Strain/Indicator: TA98, Metabolic Activation: RAT, LIVER, S-9, Method: STANDARD PLATE) was “active; positive” and the mutagenic call [2] was “inactive; negative”. The mutagenic call [5] was “active; positive”, the mutagenic call (Test System: UDS HUMAN FIBROBLASTS, Strain/Indicator: THY INCORP (NON-S-PHASE), Metabolic Activation: MOUSE, LIVER, S-9, Method: AUTORADIOGRAPHY) was “active; positive” and the mutagenic call (Test System: UDS HUMAN FIBROBLASTS, Strain/Indicator: THY INCORP (NON-S-PHASE), Metabolic Activation: RAT, LIVER, S-9, Method: AUTORADIOGRAPHY) was “active; positive”.
In the case of `O=NN(CCCl)C(=O)NCCO`, the mutagenic call [4] is reported as “active; positive”.
`CCCCN=[N+]=[N-]` was tested, and the mutagenic call (Test System: Ames Salmonella typhimurium, Strain/Indicator: TA100, Metabolic Activation: None, Method: Preincubation) was “inactive; negative” and the mutagenic call (Test System: Ames Salmonella typhimurium, Strain/Indicator: TA100, Metabolic Activation: Rat, Liver, S-9, Aroclor 1254, Method: Preincubation) was “active; positive”.
In the case of `CC(=O)CCC(C)=O`, the mutagenic call [6] is reported as “inactive; negative”, the mutagenic call (Test System: AMES SALMONELLA TYPHIMURIUM, Strain/Indicator: TA98, Metabolic Activation: RAT, LIVER, S-9, AROCLOR 1254, Method: PREINCUBATION) is reported as “inactive; negative” and the mutagenic call [7] is reported as “inactive; negative”. The mutagenic call (Test System: AMES SALMONELLA TYPHIMURIUM, Strain/Indicator: TA100, Metabolic Activation: RAT, LIVER, S-9, AROCLOR 1254, Method: PREINCUBATION) was “inactive; negative”, the mutagenic call (Test System: AMES SALMONELLA TYPHIMURIUM, Strain/Indicator: TA102, Metabolic Activation: NONE, Method: PREINCUBATION) was “inactive; negative” and the mutagenic call (Test System: AMES SALMONELLA TYPHIMURIUM, Strain/Indicator: TA102, Metabolic Activation: RAT, LIVER, S-9, AROCLOR 1254, Method: PREINCUBATION) was “inactive; negative”.
`Nc1ccc2nc3c(N)cccc3nc2c1` was tested, and the mutagenic call [6] was “inactive; negative” and the mutagenic call (Test System: AMES SALMONELLA TYPHIMURIUM, Strain/Indicator: TA98, Metabolic Activation: RAT, LIVER, S-9, PCB, Method: PREINCUBATION) was “active; positive”.
For `COC(=O)/C=C/c1ccc([N+](=O)[O-])o1`, the mutagenic call [6] was “active; positive”.
